What was measured:
[1] = test system: Staphylococcus aureus FDA209P; test: Antimicrobial spectrum, agar-dilution method; format: cell-based
[2] = test system: hyperglycemia following an oral load of sucrose; test: Hyperglycemia following an oral load of sucrose; format: in vivo; conditions: dose/kg 30.0 mg; 20 min. after 3.2 g sucrose/kg
Experimental: (§4) [Plasma Glucose and insulin 20 min. after carbohydrate ± Trestatin (1.
g wheat starch/kg or 3.2 g sucrose/kg)]

[3] = test system: hyperglycemia (hyperinsulinemia) following an oral load of native starch; test: Hyperglycemia (hyperinsulinemia) following an oral load of native starch; format: in vivo; conditions: 20 min. after wheat starch
Experimental: as §4
g wheat starch/kg or 3.2 g sucrose/kg)]

[4] = test system: Bacillus subtilis PCI 219; test: Antimicrobial spectrum, agar-dilution method; format: cell-based; conditions: Bacillus subtilis PCI 219, agar-dilution
[5] = test system: Pseudomonas aeruginosa A3; test: Antimicrobial spectrum, agar-dilution method; format: cell-based
[6] = test system: Pseudomonas aeruginosa IFO12689; test: Antimicrobial spectrum, agar-dilution method; format: cell-based
[7] = test system: E. coli NIHJ STf; test: Antimicrobial spectrum, agar-dilution method; format: cell-based
[8] = test system: E. coli CF41; test: Antimicrobial spectrum, agar-dilution method; format: cell-based
[9] = test system: E. coli NIHJ SMf; test: Antimicrobial spectrum, agar-dilution method; format: cell-based
[10] = test system: E. coli NIHJ; test: Antimicrobial spectrum, agar-dilution method; format: cell-based
[11] = test system: Candida albicans Yu1200; test: Antimicrobial spectrum, agar-dilution method; format: cell-based
[12] = target: T1, porcine pancreatic α-amylase (Sus scrofa, UniProt P00690); test: Porcine pancreatic α-amylase inhibitory activity (Bernfeld assay); format: biochemical; conditions: IU = amount giving 50% inhibition of 2 units porcine pancreatic α-amylase, pH 6.9, 37° C.
T1 sequence (P00690 16-511): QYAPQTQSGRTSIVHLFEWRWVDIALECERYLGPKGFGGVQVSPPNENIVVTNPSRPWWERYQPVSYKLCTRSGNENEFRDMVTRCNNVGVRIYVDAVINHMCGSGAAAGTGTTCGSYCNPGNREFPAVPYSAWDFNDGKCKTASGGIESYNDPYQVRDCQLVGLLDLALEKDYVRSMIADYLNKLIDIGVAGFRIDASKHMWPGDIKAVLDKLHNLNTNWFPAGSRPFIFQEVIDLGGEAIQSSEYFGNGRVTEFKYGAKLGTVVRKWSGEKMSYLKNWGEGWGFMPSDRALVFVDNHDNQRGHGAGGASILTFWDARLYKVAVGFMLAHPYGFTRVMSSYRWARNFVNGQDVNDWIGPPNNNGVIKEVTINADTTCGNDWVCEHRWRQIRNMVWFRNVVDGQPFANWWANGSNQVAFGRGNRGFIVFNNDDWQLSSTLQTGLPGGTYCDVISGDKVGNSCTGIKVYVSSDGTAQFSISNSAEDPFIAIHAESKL
Experimental: 2 units* of porcine pancreatic α-amylase in 0.1 ml of 6.4 mM ammonium sulfate solution are added to 0.6 ml of 20 mM phosphate buffer (pH 6.9) containing 10 mM sodium chloride and different amounts of Trestatin. The mixture, after equilibration at 37° C. for 5 min. followed by the addition of 0.5 ml of 4% soluble starch solution, is incubated for 5 min. at 37° C. The reaction is terminated by the addition of 2 ml of dinitrosalicylic acid reagent prepared according to the method of P. Bernfeld. The mixture is heated on a boiling water bath for 5 min. and then diluted with 10 ml of water. Absorbance (A1) of the resulting colored solution is measured at 540 nm, and the inhibition of α-amylase activity can be calculated from the following equation: [formula] A0; absorbance without enzyme A2; absorbance without Trestatin
*1 unit of the α-amylase is the amount of enzyme which catalyzes under the above conditions without Trestatin the formation of reducing sugars equivalent to 1 μmol of maltose.
Each of said inhibitory activities was determined by the method mentioned above.

[13] = test system: Sarcina lutea ATCC 9341; test: Antimicrobial spectrum, agar-dilution method; format: cell-based; conditions: Sarcina lutea ATCC 9341, agar-dilution
[14] = Titration (in water); format: physicochemical
[15] = test system: Staphylococcus aureus Smith; test: Antimicrobial spectrum, agar-dilution method; format: cell-based
[16] = test system: Mycobacterium smegmatis ATCC607; test: Antimicrobial spectrum, agar-dilution method; format: cell-based
[17] = test system: Salmonella paratyphi B; conditions: agar-dilution
[18] = test system: rats; test: Acute toxicity, oral, rats; conditions: 500 mg/kg administered to rats orally (65-700 times the effective dosage)
[19] = test system: E. coli CF17; test: Antimicrobial spectrum, agar-dilution method; format: cell-based
[20] = test system: Salmonella typhimurium IFO12529; test: Antimicrobial spectrum, agar-dilution method; format: cell-based
[21] = test system: Citrobacter; test: Antimicrobial spectrum, agar-dilution method; format: cell-based
[22] = Solubility in solvents; format: physicochemical
Source text: (h) Solubility in solvents:

[23] = test system: E. coli K-12 ML1630; test: Antimicrobial spectrum, agar-dilution method; format: cell-based; conditions: E. coli K-12 ML1630, agar-dilution
[24] = test system: Pseudomonas aeruginosa P2; test: Antimicrobial spectrum, agar-dilution method; format: cell-based
[25] = test system: Shigella flexneri; test: Antimicrobial spectrum, agar-dilution method; format: cell-based
[26] = test system: Staphylococcus aureus MS9261; test: Antimicrobial spectrum, agar-dilution method; format: cell-based
[27] = test system: hyperglycemia induced by cooked rice starch; test: Inhibition of hyperglycemia induced by cooked rice starch, rats; format: in vivo; conditions: p.o., dose causing after 20 minutes a 20 percent decrease of hyperglycemia, 2 g/kg cooked rice starch
Experimental: (§1) **ED20 is defined as the dose causing after 20 minutes a 20 percent
(§2) decrease of hyperglycemia induced by oral administration of 2 g/kg body
(§3) weight cooked rice starch.

[28] = test system: Serratia marcescens IFO12648; test: Antimicrobial spectrum, agar-dilution method; format: cell-based
[29] = test system: Proteus vulgaris OX19 ATCC6898; test: Antimicrobial spectrum, agar-dilution method; format: cell-based
[30] = test system: Staphylococcus aureus MS3937; test: Antimicrobial spectrum, agar-dilution method; format: cell-based
[31] = test system: Klebsiella pneumoniae PCI602; test: Antimicrobial spectrum, agar-dilution method; format: cell-based
[32] = test system: hyperglycemia induced by cooked rice starch; test: Inhibition of hyperglycemia induced by cooked rice starch, mice; format: in vivo; conditions: p.o., dose causing after 20 minutes a 20 percent decrease of hyperglycemia, 2 g/kg cooked rice starch
Experimental: as §1, §2, §3

[33] = test system: Proteus rettgeri; test: Antimicrobial spectrum, agar-dilution method; format: cell-based
[34] = test system: Bordetella bronchiseptica Aichi 202; test: Antimicrobial spectrum, agar-dilution method; format: cell-based; conditions: Bordetella bronchiseptica Aichi 202, agar-dilution

With `C[C@H]1O[C@H](O[C@H]2[C@H](O)[C@@H](O)[C@@H](O[C@H]3[C@H](O)[C@@H](O)[C@@H](O[C@H]4[C@H](O)[C@@H](O)[C@@H](O[C@H]5O[C@H](CO)[C@@H](O)[C@H](O)[C@H]5O)O[C@@H]4CO)O[C@@H]3CO)O[C@@H]2CO)[C@H](O)[C@@H](O)[C@@H]1N[C@H]1C=C(CO)[C@@H](O[C@H]2O[C@H](CO)[C@@H](O[C@H]3O[C@H](C)[C@@H](NC4C=C(CO)[C@@H](O[C@H]5O[C@H](CO)[C@@H](O[C@H]6O[C@H](C)[C@@H](NC7C=C(CO)[C@@H](O)[C@H](O)[C@H]7O)[C@H](O)[C@H]6O)[C@H](O)[C@H]5O)[C@H](O)[C@H]4O)[C@H](O)[C@H]3O)[C@H](O)[C@H]2O)[C@H](O)[C@H]1O` (stereo partly drawn) [Trestatin C] the Antimicrobial spectrum [1] was greater than 100 µg/mL, the “Plasma glucose, sucrose - load” value [2] was 85% of carbohydrate primed controls and the “Plasma glucose, starch - load” value ([3]; dose/kg 0.3 mg) was 71% of carbohydrate primed controls. The “Plasma insulin, starch - load” value ([3]; dose/kg 0.3 mg) was 51% of carbohydrate primed controls, the “Plasma glucose, starch - load” value ([3]; dose/kg 1.0 mg) was 60% of carbohydrate primed controls and the “Plasma insulin, starch - load” value ([3]; dose/kg 1.0 mg) was 51% of carbohydrate primed controls. For the same compound, the “Plasma glucose, starch - load” value ([3]; dose/kg 3.0 mg) was 58% of carbohydrate primed controls, the “Plasma insulin, starch - load” value ([3]; dose/kg 3.0 mg) was 63% of carbohydrate primed controls and the Antimicrobial spectrum [4] was greater than 100 µg/mL. The Antimicrobial spectrum [5] was greater than 100 µg/mL, the Antimicrobial spectrum [6] was greater than 100 µg/mL and the Antimicrobial spectrum [7] was greater than 100 µg/mL. The Antimicrobial spectrum [8] was greater than 100 µg/mL, the Antimicrobial spectrum [9] was greater than 100 µg/mL and the Antimicrobial spectrum [10] was greater than 100 µg/mL. For the same compound, the Antimicrobial spectrum [11] was greater than 100 µg/mL, the Inhibitory activities [12] was 4.9 × 10^7 IU/g and the Antimicrobial spectrum [13] was greater than 100 µg/mL. The “pKa'” value [14] was 5.0, the Antimicrobial spectrum [15] was greater than 100 µg/mL and the Antimicrobial spectrum [16] was greater than 100 µg/mL. The Antimicrobial spectrum [17] was greater than 100 µg/mL, the Acute toxicity [18] was “not observed” and the Antimicrobial spectrum [19] was greater than 100 µg/mL. The Antimicrobial spectrum [20] was greater than 100 µg/mL, the Antimicrobial spectrum [21] was greater than 100 µg/mL and the Solubility in acetone [22] was “slightly soluble”. For the same compound, the Solubility in chloroform [22] was “insoluble”, the Solubility in dimethylsulfoxide [22] was “soluble” and the Solubility in ethanol [22] was “slightly soluble”. For the same compound, the “Solubility in ethyl acetate” value [22] was “insoluble”, the Solubility in water [22] was “easily soluble” and the Antimicrobial spectrum [23] was greater than 100 µg/mL. For the same compound, the Antimicrobial spectrum [24] was greater than 100 µg/mL, the Antimicrobial spectrum [25] was greater than 100 µg/mL and the Antimicrobial spectrum [26] was greater than 100 µg/mL. For the same compound, the “ED20, inhibition of hyperglycemia induced by cooked rice starch” value (from here on “ED20, inhibition”) [27] was 3.0 mg/kg, the Antimicrobial spectrum [28] was greater than 100 µg/mL and the Antimicrobial spectrum [29] was greater than 100 µg/mL. The Antimicrobial spectrum [30] was greater than 100 µg/mL, the Antimicrobial spectrum [31] was greater than 100 µg/mL and the “ED20, inhibition” value [32] was 0.7 mg/kg. For the same compound, the Antimicrobial spectrum [33] was greater than 100 µg/mL and the Antimicrobial spectrum [34] was greater than 100 µg/mL.
For “Trestatin B monohydrochloride [Trestatin B . HCl]”, the Inhibitory activities [12] was 1.3 × 10^6 IU/g.
In the case of “Trestatin C trihydrochloride [Trestatin C . HCl]”, the Inhibitory activities [12] is reported as 4.5 × 10^7 IU/g.
For `C[C@H]1O[C@H](O[C@@H]2[C@H](O)[C@@H](O)[C@@H](O[C@@H]3[C@H](O)[C@@H](O)[C@@H](O[C@@H]4[C@H](O)[C@H](O)[C@@H](O[C@H]5O[C@H](CO)[C@H](O)[C@H](O)[C@H]5O)O[C@@H]4CO)O[C@@H]3CO)O[C@H]2CO)[C@@H](O)[C@@H](O)[C@@H]1N[C@@H]1C=C(CO)[C@@H](O)[C@@H](O)[C@@H]1O` (stereo in doubt) [Trestatin B], the Antimicrobial spectrum [1] was greater than 100 µg/mL, the Antimicrobial spectrum [4] was greater than 100 µg/mL and the Antimicrobial spectrum [5] was greater than 100 µg/mL. For the same compound, the Antimicrobial spectrum [6] was greater than 100 µg/mL, the Antimicrobial spectrum [7] was greater than 100 µg/mL and the Antimicrobial spectrum [8] was greater than 100 µg/mL. For the same compound, the Antimicrobial spectrum [9] was greater than 100 µg/mL, the Antimicrobial spectrum [10] was greater than 100 µg/mL and the Antimicrobial spectrum [11] was greater than 100 µg/mL. The Inhibitory activities [12] was 1.5 × 10^6 IU/g, the Antimicrobial spectrum [13] was greater than 100 µg/mL and the “pKa'” value [14] was 5.0. It also gave an Antimicrobial spectrum [15] greater than 100 µg/mL, an Antimicrobial spectrum [16] greater than 100 µg/mL and an Antimicrobial spectrum [17] greater than 100 µg/mL. The Acute toxicity [18] was “not observed”, the Antimicrobial spectrum [19] was greater than 100 µg/mL and the Antimicrobial spectrum [20] was greater than 100 µg/mL. The Antimicrobial spectrum [21] was greater than 100 µg/mL, the Solubility in acetone [22] was “slightly soluble” and the Solubility in chloroform [22] was “insoluble”. The Solubility in dimethylsulfoxide [22] was “soluble”, the Solubility in ethanol [22] was “slightly soluble” and the “Solubility in ethyl acetate” value [22] was “insoluble”. For the same compound, the Solubility in water [22] was “easily soluble”, the Antimicrobial spectrum [23] was greater than 100 µg/mL and the Antimicrobial spectrum [24] was greater than 100 µg/mL. For the same compound, the Antimicrobial spectrum [25] was greater than 100 µg/mL, the Antimicrobial spectrum [26] was greater than 100 µg/mL and the “ED20, inhibition” value [27] was 7.7 mg/kg. The Antimicrobial spectrum [28] was greater than 100 µg/mL, the Antimicrobial spectrum [29] was greater than 100 µg/mL and the Antimicrobial spectrum [30] was greater than 100 µg/mL. For the same compound, the Antimicrobial spectrum [31] was greater than 100 µg/mL, the “ED20, inhibition” value [32] was 3.2 mg/kg and the Antimicrobial spectrum [33] was greater than 100 µg/mL. For the same compound, the Antimicrobial spectrum [34] was greater than 100 µg/mL.
In the case of “Trestatin A dihydrochloride [Trestatin A . HCl]”, the Inhibitory activities [12] is reported as 6.3 × 10^7 IU/g.

From US4273765A, “Amino sugar derivatives containing trehalose” (Hoffmann-La Roche Inc., priority 1978, dated 1981)
